Source: ChEMBL document CHEMBL1126457, “Synthesis of novel targeted pro-prodrugs of anthracyclines potentially activated by a monoclonal antibody galactosidase conjugate (part 1)” (1992)

The compounds below were run on L1210 (assay: Compound was evaluated for cytotoxicity against L1210 murine leukemia cells).
Assay type: functional, Mus musculus
In the case of `COc1cccc2c1C(=O)c1c(O)c3c(c(O)c1C2=O)C[C@@](O)(C(C)=O)C[C@@H]3O[C@H]1C[C@H](N)[C@H](O)[C@H](C)O1` [DAUNORUBICIN], the Cytotoxicity is reported as 0.02 µg/mL. `COc1cccc2c1C(=O)c1c(O)c3c(c(O)c1C2=O)C[C@@](O)(C(C)=O)C[C@@H]3O[C@H]1C[C@@H](NC(=O)OCc2ccc(O[C@H]3O[C@@H](CO)[C@H](O)[C@H](O)[C@@H]3O)cc2)[C@H](O)[C@H](C)O1` gave a Cytotoxicity greater than 1 µg/mL. `COc1cccc2c1C(=O)c1c(O)c3c(c(O)c1C2=O)C[C@@](O)(C(C)=O)C[C@@H]3O[C@H]1C[C@@H](NC(=O)OCc2ccccc2O[C@H]2O[C@@H](CO)[C@H](O)[C@H](O)[C@@H]2O)[C@H](O)[C@H](C)O1` gave a Cytotoxicity greater than 1 µg/mL.
